Test results reported in US20140005163A1 (NOVARTIS AG, priority 2010, published 2014).
pIC50: −log10 of the molar value.

test system: S6 Ribosomal Protein phosphorylation Ser235/236 in TSC1 null mouse embryo fibroblast (MEF) cells; assay: Reverse protein array assay, S6 Ribosomal Protein phosphorylation Ser235/236 in TSC1 null MEF cells; type: cell-based; conditions: 1 h, pS6 ribosomal protein Ser235/236, 60 minutes incubation, read-out: p-S6 IC50
Procedure, shortened: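 TSC1−/− MEFs, seeded and held ≥20 h at 37 °C/5% CO2, were exposed to 8-step serial compound dilutions (0.02% DMSO final; DMSO vehicle control) for 60 min at 37 °C. Cells were then lysed on ice for 10 min and lysates spotted onto reverse protein array chips.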

Row | SMILES | pIC50
1 | Cn1cc(-n2c(=O)n(C)c3cnc4ccc(-c5ccc(CO)nc5)cc4c32)c(Cl)n1 [Example 16.5, 1-(3-chloro-1-methyl-1H-pyrazol-4-yl)-8-(6-hydroxymethyl-pyridin-3-yl)-3-methyl-1,3-dihydro-imidazo[4,5-c]quinolin-2-one] | 7.89
2 | CCn1cc(-n2c(=O)n(C)c3cnc4ccc(-c5cncc(N)c5)cc4c32)c(C)n1 [Example 45.2, 8-(5-Amino-pyridin-3-yl)-1-(1-ethyl-3-methyl-1H-pyrazol-4-yl)-3-methyl-1,3-dihydro-imidazo[4,5-c]quinolin-2-one] | 7.14
3 | Cc1nn(C(C)C)cc1-n1c(=O)n(C)c2cnc3ccc(-c4cncc(N)c4)cc3c21 [Example 45.3, 8-(5-Amino-pyridin-3-yl)-1-(1-isopropyl-3-methyl-1H-pyrazol-4-yl)-3-methyl-1,3-dihydro-imidazo[4,5-c]quinolin-2-one] | 7.34
4 | Cc1cnn(C)c1-n1c(=O)n(C)c2cnc3ccc(-c4cncc(OC(C)C)c4)cc3c21 [Example 58.3, 1-(2,4-Dimethyl-2H-pyrazol-3-yl)-8-(5-isopropoxy-pyridin-3-yl)-3-methyl-1,3-dihydro-imidazo[4,5-c]quinolin-2-one] | 6.76
5 | COCCOc1cncc(-c2ccc3ncc4c(c3c2)n(-c2cn(C)nc2Cl)c(=O)n4C)c1 [Example 59.2, 1-(3-Chloro-1-methyl-1H-pyrazol-4-yl)-8-[5-(2-methoxy-ethoxy)-pyridin-3-yl]-3-methyl-1,3-dihydro-imidazo[4,5-c]quinolin-2-one] | 9.00
6 | CCOc1ncc(-c2ccc3ncc4c(c3c2)n(-c2cn(C)nc2C)c(=O)n4C)cc1NC(C)=O [Example 65, N-{5-[1-(1,3-Dimethyl-1H-pyrazol-4-yl)-3-methyl-2-oxo-2,3-dihydro-1H-imidazo[4,5-c]quinolin-8-yl]-2-ethoxy-pyridin-3-yl}-acetamide] | 7.18
7 | CCOc1cc(-c2ccc3ncc4c(c3c2)n(-c2c(C)nn(CC(=O)N(C)C)c2C)c(=O)n4C)cnc1C [Example 85.3, 2-{4-[8-(5-Ethoxy-6-methyl-pyridin-3-yl)-3-methyl-2-oxo-2,3-dihydro-imidazo[4,5-c]quinolin-1-yl]-3,5-dimethyl-pyrazol-1-yl}-N,N-dimethyl-acetamide] | 6.95
8 | CCNc1cc(-c2ccc3ncc4c(c3c2)n(-c2cn(CC)nc2C)c(=O)n4C)cnc1C [Example 87.3, 8-(5-Ethylamino-6-methyl-pyridin-3-yl)-1-(1-ethyl-3-methyl-1H-pyrazol-4-yl)-3-methyl-1,3-dihydro-imidazo[4,5-c]quinolin-2-one] | 8.22
9 | COc1ncc(-c2ccc3ncc4c(c3c2)n(-c2cn(C)nc2Cl)c(=O)n4C)cc1N [Example 89, 8-(5-Amino-6-methoxy-pyridin-3-yl)-1-(3-chloro-1-methyl-1H-pyrazol-4-yl)-3-methyl-1,3-dihydro-imidazo[4,5-c]quinolin-2-one] | > 9.30
10 | Cc1nn(C)cc1-n1c(=O)n(C)c2cnc3ccc(-c4ccnc(OC(C)C)c4)cc3c21 [Example 92, 1-(1,3-Dimethyl-1H-pyrazol-4-yl)-8-(2-isopropoxy-pyridin-4-yl)-3-methyl-1,3-dihydro-imidazo[4,5-c]quinolin-2-one] | 7.12
11 | CCN(C)c1ccc(-c2ccc3ncc4c(c3c2)n(-c2cn(C)nc2C)c(=O)n4C)cn1 [Example 98.1, 1-(1,3-Dimethyl-1H-pyrazol-4-yl)-8-[6-(ethyl-methyl-amino)-pyridin-3-yl]-3-methyl-1,3-dihydro-imidazo[4,5-c]quinolin-2-one] | 8.52
12 | Cc1nn(C)cc1-n1c(=O)n(C)c2cnc3ccc(-c4ccc(N5CCNCC5)nc4)cc3c21 [Example 126, 1-(1,3-Dimethyl-1H-pyrazol-4-yl)-3-methyl-8-(6-piperazin-1-yl-pyridin-3-yl)-1,3-dihydro-imidazo[4,5-c]quinolin-2-one] | 8.27
13 | Cc1nn(C)cc1-n1c(=O)n(C)c2cnc3ccc(-c4cnc5ccn(C)c5c4)cc3c21 [Example 129, 1-(1,3-Dimethyl-1H-pyrazol-4-yl)-3-methyl-8-(1-methyl-1H-pyrrolo[3,2-b]pyridin-6-yl)-1,3-dihydro-imidazo[4,5-c]quinolin-2-one] | 9.00
14 | CNc1ncc(-c2ccc3ncc4c(c3c2)n(-c2cn(C(C)C)nc2C)c(=O)n4C)cc1F [Example 141.3, 8-(5-Fluoro-6-methylamino-pyridin-3-yl)-1-(1-isopropyl-3-methyl-1H-pyrazol-4-yl)-3-methyl-1,3-dihydro-imidazo[4,5-c]quinolin-2-one] | 8.70
15 | Cc1nn(C(C)C)cc1-n1c(=O)n(C)c2cnc3ccc(-c4cnc(N)c(F)c4)cc3c21 [Example 142.3, 8-(6-Amino-5-fluoro-pyridin-3-yl)-1-(1-isopropyl-3-methyl-1H-pyrazol-4-yl)-3-methyl-1,3-dihydro-imidazo[4,5-c]quinolin-2-one] | 9.00
16 | CNc1ncc(-c2ccc3ncc4c(c3c2)n(-c2c(C)nn(C)c2C)c(=O)n4C)cc1C(F)(F)F [Example 144.1, 3-Methyl-8-(6-methylamino-5-trifluoromethyl-pyridin-3-yl)-1-(1,3,5-trimethyl-1H-pyrazol-4-yl)-1,3-dihydro-imidazo[4,5-c]quinolin-2-one] | 8.70
17 | Cc1nn(C)c(C)c1-n1c(=O)n(C)c2cnc3ccc(-c4cnc(N)c(Cl)c4)cc3c21 [Example 148.1, 8-(6-Amino-5-chloro-pyridin-3-yl)-3-methyl-1-(1,3,5-trimethyl-1H-pyrazol-4-yl)-1,3-dihydro-imidazo[4,5-c]quinolin-2-one] | 7.66
18 | Cc1nn(C)cc1-n1c(=O)n(C)c2cnc3ccc(-c4cnc(N)c(Cl)c4)cc3c21 [Example 148.2, 8-(6-Amino-5-chloro-pyridin-3-yl)-1-(1,3-dimethyl-1H-pyrazol-4-yl)-3-methyl-1,3-dihydro-imidazo[4,5-c]quinolin-2-one] | 9.00
19 | CCNc1cc(-c2ccc3ncc4c(c3c2)n(-c2cn(C)nc2C)c(=O)n4C)cnc1CO [Example 155.1, 1-(1,3-Dimethyl-1H-pyrazol-4-yl)-8-(5-ethylamino-6-hydroxymethyl-pyridin-3-yl)-3-methyl-1,3-dihydro-imidazo[4,5-c]quinolin-2-one] | 8.70
20 | CNc1cc(-c2ccc3ncc4c(c3c2)n(-c2cn(C(C)C)nc2C)c(=O)n4C)cnc1CO [Example 158.2, 8-(6-Hydroxymethyl-5-methylamino-pyridin-3-yl)-1-(1-isopropyl-3-methyl-1H-pyrazol-4-yl)-3-methyl-1,3-dihydro-imidazo[4,5-c]quinolin-2-one] | 9.00
21 | CNc1cc(-c2ccc3ncc4c(c3c2)n(-c2cn(C)nc2Cl)c(=O)n4C)cnc1CO [Example 158.3, 1-(3-Chloro-1-methyl-1H-pyrazol-4-yl)-8-(6-hydroxymethyl-5-methylamino-pyridin-3-yl)-3-methyl-1,3-dihydro-imidazo[4,5-c]quinolin-2-one] | > 9.30
22 | CNc1cc(-c2ccc3ncc4c(c3c2)n(-c2cn(C)nc2C)c(=O)n4C)cnc1C [Example 163, 1-(1,3-Dimethyl-1H-pyrazol-4-yl)-3-methyl-8-(6-methyl-5-methylamino-pyridin-3-yl)-1,3-dihydro-imidazo[4,5-c]quinolin-2-one] | 8.70
